Data reported in ChEMBL document CHEMBL1201862, “PubChem BioAssay data set” (2004).
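Protocol summary: plate cells (96-well), add compound at 5 concentrations, incubate 48 h, interpolate endpoints linearly. Abbreviation: GI50, concentration required for 50% inhibition of growth.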 Active and inactive are the calls of the source. Rule as the data show it: active = GI50 up to about 1.1 µM and inactive = higher.

Assays:
Assay in all cases: DTP human tumour cell line panel, 48 h
IGROV-1 = test system: IGROV-1
HOP-92 = test system: HOP-92
RPMI-8226 = test system: RPMI-8226
KM12 = test system: KM12
SF-268 = test system: SF-268
LOX IMVI = test system: LOX IMVI
SN12C = test system: SN12C
NCI/ADR-RES = test system: NCI/ADR-RES
HCT-15 = test system: HCT-15
786-0 = test system: 786-0
SK-OV-3 = test system: SK-OV-3
SK-MEL-2 = test system: SK-MEL-2
COLO 205 = test system: COLO 205
SNB-75 = test system: SNB-75
TK-10 = test system: TK-10
DU-145 = test system: DU-145
PC-3 = test system: PC-3
SR = test system: SR
U-251 = test system: U-251

SMILES	GI50 (IGROV-1)	GI50 (HOP-92)	GI50 (RPMI-8226)	GI50 (KM12)	GI50 (SF-268)	GI50 (LOX IMVI)	GI50 (SN12C)	GI50 (NCI/ADR-RES)	GI50 (HCT-15)	GI50 (786-0)	GI50 (SK-OV-3)	GI50 (SK-MEL-2)	GI50 (COLO 205)	GI50 (SNB-75)	GI50 (TK-10)	GI50 (DU-145)	GI50 (PC-3)	GI50 (SR)	GI50 (U-251)
COc1cc(C2c3cc4c(cc3OC(NNC(N)=O)C2C)OCO4)cc(OC)c1OC (stereo not drawn)	0.427 µM (active)	0.0675 µM (active)	0.167 µM (active)	0.107 µM (active)	0.518 µM (active)	0.145 µM (active)	0.404 µM (active)	4.72 µM (inactive)	0.274 µM	0.185 µM (active)	1.36 µM (inactive)	1.26 µM (inactive)	0.0982 µM (active)	0.18 µM (active)	34.7 µM (inactive)	0.585 µM (active)	0.183 µM (active)	0.0826 µM (active)	0.126 µM (active)
CC1=NN(c2cccc(Cl)c2)C2(C1)C(Cl)C(=O)N2c1nc2ccccc2s1 (stereo not drawn)	21.8 µM (inactive)	25.3 µM (inactive)	17.3 µM (inactive)	22.3 µM (inactive)	33.2 µM (inactive)	18.7 µM (inactive)	22.8 µM (inactive)	25.4 µM (inactive)	28.8 µM	21.1 µM (inactive)	28 µM (inactive)	17.1 µM (inactive)	18 µM (inactive)	21.6 µM (inactive)	90.2 µM (inactive)	37.1 µM (inactive)	22.6 µM (inactive)	15.2 µM (inactive)	23.9 µM (inactive)
COC(=O)C1(Cc2ccc3c(c2)CCC3)Cc2cc3c(cc2C1=O)CCC3 (stereo not drawn)	24.4 µM (inactive)	7.74 µM (inactive)	8.02 µM (inactive)	18 µM (inactive)	> 46.5 µM (inactive)	25.1 µM (inactive)	26.9 µM (inactive)	13.4 µM (inactive)	26.5 µM	> 46.5 µM (inactive)	> 46.5 µM (inactive)	17.1 µM (inactive)	15.4 µM (inactive)	42.2 µM (inactive)	> 46.5 µM (inactive)	44.4 µM (inactive)	17.9 µM (inactive)	11.4 µM (inactive)	29.4 µM (inactive)
C=C[C@H]1CN2CCc3c([nH]c4c([C@@H]5CCCN5C)c(O)ccc34)[C@@H]2C[C@@H]1C[C@H]1c2[nH]c3ccccc3c2CCN1C	1.32 µM (inactive)	1.4 µM (inactive)	0.478 µM (active)	1.47 µM (inactive)	1.74 µM (inactive)	1.39 µM (inactive)	1.82 µM (inactive)	1.85 µM (inactive)	1.28 µM	1.4 µM (inactive)	1.7 µM (inactive)	1.85 µM (inactive)	1.61 µM (inactive)	1.22 µM (inactive)	1.57 µM (inactive)	1.69 µM (inactive)	1.47 µM (inactive)	0.256 µM (active)	1.38 µM (inactive)
N#CCCCC[N+]12CN3CN(CN(C3)C1)C2	> 100 µM (inactive)	> 100 µM (inactive)	40.8 µM (inactive)	> 100 µM (inactive)	> 100 µM (inactive)	32.1 µM (inactive)	> 100 µM (inactive)	> 100 µM (inactive)	> 100 µM	> 100 µM (inactive)	> 100 µM (inactive)	> 100 µM (inactive)	> 100 µM (inactive)	> 100 µM (inactive)	> 100 µM (inactive)	> 100 µM (inactive)	> 100 µM (inactive)	30.8 µM (inactive)	> 100 µM (inactive)
Cc1ccc2nc3ccccc3c(C3C4C(=O)N(c5ccc(F)cc5)C(=O)C4ON3C(C(N)=O)c3ccccc3)c2c1 (stereo not drawn)	25.4 µM (inactive)	37.1 µM (inactive)	25.3 µM (inactive)	32.4 µM (inactive)	47.1 µM (inactive)	24.5 µM (inactive)	33 µM (inactive)	29.2 µM (inactive)	27.2 µM	37.9 µM (inactive)	33.2 µM (inactive)	33.3 µM (inactive)	17.5 µM (inactive)	76.9 µM (inactive)	55.6 µM (inactive)	59.3 µM (inactive)	55.2 µM (inactive)	40.9 µM (inactive)	29.4 µM (inactive)
Nc1c([N+](=O)[O-])cc2c3c(cccc13)CC2	> 100 µM (inactive)	> 100 µM (inactive)	55.7 µM (inactive)	> 100 µM (inactive)	83.6 µM (inactive)	65.2 µM (inactive)	62.8 µM (inactive)	40.8 µM (inactive)	65.9 µM	57.4 µM (inactive)	51.2 µM (inactive)	51.3 µM (inactive)	64.1 µM (inactive)	> 100 µM (inactive)	42.8 µM (inactive)	46 µM (inactive)	> 100 µM (inactive)	25.4 µM (inactive)	91 µM (inactive)
